Values after ≈ are worked out from the molar mass of the structure shown. Values joined by “and” are separate entries in the source; they are usually repeats but may differ in a detail not shown here. Equal values may be shown once. Read-outs that look alike come from different tables or passages of the source.
Key:
[1] = DPPH free radical scavenging activity; conditions: for IC50: DPPH antioxidant; for % inhibition: DPPH
Method: In the DPPH free radical scavenging activity, compounds (T1–T20) were evaluated for their free radical scavenging activity with ascorbic acid as standard compound. The scavenging effect increased with the increasing concentrations of sample compounds. DPPH is relatively stable nitrogen centered free radical that easily accepts an electron or hydrogen radical to become a stable diamagnetic molecule. DPPH radicals react with suitable reducing agents as a result of which the electrons become paired off forming the corresponding hydrazine. The solution therefore loses colour stoichometrically depending on the number of electrons taken up. […] The sample solutions were incubated for 30 min at room temperature in dark place and after then absorbance was recorded against the blank solution at 517 nm. The relative percent of DPPH scavenging activity was calculated according to the following equation: I%=Acontrol-Asample/Acontrol×100,
where Acontrol is the absorbance of the control, Asample is the absorbance of the test compound.

[2] = test system: HCT116 (human colon cancer cells); assay: Anticancer evaluation, SRB assay; format: cell-based
Method: HCT116 (human colon cancer cells) were seeded at 2500 cells/well (96 well plate), allowed to attach overnight, exposed to the respective compounds for 72 h and subjected to SRB assay (570 nm). Data represent mean IC50 of at least triplicates. The compounds were all dissolved in DMSO as stock of 100 mg/ml. […] The highest concentration of each compound tested (100 μg/ml) contained only 0.1% DMSO.

[3] = test system: Bacillus subtilis; assay: In vitro antimicrobial screening, tube dilution method; format: cell-based; conditions: B. substilis, Gram +ve, nutrient broth, 37 ± 1 °C, 24 h, read-out: Minimum inhibitory concentration
Method: (§1) The in vitro antimicrobial screening of the synthesized 1,2,4-triazole derivatives (T1–T20) in μM was determined against Gram-positive Bacillus subtilis, […], Gram-negative Escherichia coli bacterium and fungal strains Candida albicans and Aspergillus niger by tube dilution method using ciprofloxacin, amoxycillin (antibacterial) and fluconazole (antifungal) as reference drugs. DMSO was used to dissolve the reference and sample derivatives (T1–T20). Dilutions were prepared in nutrient broth (I.P.) for bacterial (incubated at 37 ± 1 °C for 24 h) and Sabouraud dextrose broth (I.P.) for fungal species (37 ± 1 °C for 48 h for C. albicans) and (25 ± 1 °C for 7 days for A. niger) (Table 3, Figs. 4 and 5).

[4] = test system: Escherichia coli; assay: as above; format: cell-based; conditions: E. coli, Gram −ve, nutrient broth, 37 ± 1 °C, 24 h, read-out: Minimum inhibitory concentration
Method: as §1

[5] = test system: Pseudomonas aeruginosa; assay: as above; format: cell-based; conditions: P. aeruginosa, Gram −ve, nutrient broth, 37 ± 1 °C, 24 h, read-out: Minimum inhibitory concentration
Method: as §1

[6] = test system: Aspergillus niger; assay: In vitro antifungal screening, tube dilution method; format: cell-based; conditions: A. niger, Sabouraud dextrose broth, 25 ± 1 °C, 7 days, read-out: Minimum inhibitory concentration
Method: as §1

[7] = test system: Candida albicans; assay: as above; format: cell-based; conditions: C. albican, Sabouraud dextrose broth, 37 ± 1 °C, 48 h, read-out: Minimum inhibitory concentration
Method: as §1

[8] = target: Jack Bean Urease (Canavalia ensiformis, UniProt P07374); assay: biochemical; conditions: for % inhibition: urease
Chain of Jack Bean Urease (P07374 whole entry, looked up): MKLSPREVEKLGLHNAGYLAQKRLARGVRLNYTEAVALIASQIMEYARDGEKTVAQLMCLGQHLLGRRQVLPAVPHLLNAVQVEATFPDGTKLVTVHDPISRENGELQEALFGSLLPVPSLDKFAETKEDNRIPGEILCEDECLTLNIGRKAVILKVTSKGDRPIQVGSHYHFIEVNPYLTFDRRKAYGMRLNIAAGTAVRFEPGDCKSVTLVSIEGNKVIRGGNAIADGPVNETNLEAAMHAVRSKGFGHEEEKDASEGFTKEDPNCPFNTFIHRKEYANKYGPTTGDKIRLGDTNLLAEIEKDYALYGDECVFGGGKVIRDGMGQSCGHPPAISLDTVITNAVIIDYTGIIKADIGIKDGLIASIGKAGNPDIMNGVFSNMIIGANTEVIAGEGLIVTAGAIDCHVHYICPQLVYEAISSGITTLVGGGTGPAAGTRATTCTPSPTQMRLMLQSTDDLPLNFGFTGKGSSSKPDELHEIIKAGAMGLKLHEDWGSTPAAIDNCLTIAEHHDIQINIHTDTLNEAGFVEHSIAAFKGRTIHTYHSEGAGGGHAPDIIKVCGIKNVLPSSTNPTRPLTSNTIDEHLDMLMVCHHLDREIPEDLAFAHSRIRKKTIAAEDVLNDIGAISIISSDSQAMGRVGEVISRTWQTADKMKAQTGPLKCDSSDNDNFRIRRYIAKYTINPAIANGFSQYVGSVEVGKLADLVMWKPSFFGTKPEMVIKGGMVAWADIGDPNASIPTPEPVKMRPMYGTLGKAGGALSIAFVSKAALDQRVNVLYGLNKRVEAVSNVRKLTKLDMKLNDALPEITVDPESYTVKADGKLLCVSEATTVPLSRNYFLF
Method: Urease inhibitory potential for each synthesisized compound (T1–T20) was evaluated using Jack Bean Urease by Indophenol method (Table 5, Figs. 9, 10, 11). 250 µl of jack bean urease (4U) was mixed with 250 µl of different synthesized test compounds and standard of different concentrations [dissolved in DMSO/H2O mixture (1:1 v/v)]. The mixture was pre-incubated for 1 h at 37 °C in test tubes. 2 ml of 100 mM phosphate buffer (pH 6.8) containing 500 mM urea and 0.002% phenol red as an indicator were added in sample test tubes after pre incubation and again incubated at room temperature. Absorbance of reaction mixture was recorded by ELISA at 570 nm. Ammonium carbonate increased the pH of phosphate buffer from 6.8 to 7.7 which was produced from urea by urease enzyme and the end peak was measured by the colour of phenol red indicator [16].
The percentage inhibition of urease enzyme was calculated by using following formula: I%=Acontrol-Asample/Acontrol×100,
where Acontrol is the absorbance of the control; Asample is the absorbance of the test compound.

[9] = Homo sapiens, HCT-116, HCT116, 72 h, SRB, mean of at least triplicates
[10] = Homo sapiens, HCT-116, HCT116, value given in dose-response figure
[11] = HCT116, 72 h, SRB, mean of at least triplicates

| SMILES | IC50 [1] [µg/mL] | % inhibition ([1]; 25 µg/ml) [%] | % inhibition ([1]; 50 µg/ml) [%] | % inhibition ([1]; 75 µg/ml) [%] | % inhibition ([1]; 100 µg/ml) [%] | IC50 [2, 9] [µM] | MIC ([3]; Bacillus subtilis) [µM] | MIC ([4]; Escherichia coli) [µM] | MIC ([5]; Pseudomonas aeruginosa) [µM] | MIC ([6]; Aspergillus niger, 168 h) [µM] | MIC ([7]; Candida albicans) [µM] | IC50 [8] [µM] | inhibition at 25 µg/mL [8] [%] | inhibition at 50 µg/mL [8] [%] | inhibition at 75 µg/mL [8] [%] | inhibition at 100 µg/mL [8] [%] | melting point [°C] | other results |
| --- | --- | --- | --- | --- | --- | --- | --- | --- | --- | --- | --- | --- | --- | --- | --- | --- | --- | --- |
| O=C1O[C@H]([C@@H](O)CO)C(O)=C1O [Ascorbic acid, reference compound] | 35.44 (≈ 201 µM) | 38.67 | 63.68 | 84.78 | 94.45 |  |  |  |  |  |  |  |  |  |  |  |  |  |
| O=c1[nH]cc(F)c(=O)[nH]1 [Compound 5-FU, Fluorouracil, reference compound] |  |  |  |  |  | 25.4 |  |  |  |  |  |  |  |  |  |  |  | IC50 [2, 10]: 3.3 µg/mL |
| CCCCCCCCCCCCCCCc1nnc(S)n1N=Cc1ccccc1 [Compound T1] | 46.83 (≈ 113 µM) | 25.45 | 49.65 | 69.67 | 94.78 | > 241 | 120 (≈ 50 µg/mL) | 241 (≈ 100 µg/mL) | 241 (≈ 100 µg/mL) | 120 (≈ 50 µg/mL) | 241 (≈ 100 µg/mL) | 125 | 25.8 | 48 | 72.9 | 92 | 184 to 187 |  |
| CCCCCCCCCCCCCCCc1nnc(S)n1N=Cc1ccc(C=O)cc1 [Compound T2] | 34.83 (≈ 78.7 µM) | 45.67 | 56.98 | 70.16 | 84.21 | 3.84 | 56.4 (≈ 25 µg/mL) | 113 (≈ 50 µg/mL) | 56.4 (≈ 25 µg/mL) | 226 (≈ 100 µg/mL) | 226 (≈ 100 µg/mL) | 120 | 40.5 | 49.5 | 55.7 | 67.6 | 182 to 185 | IC50 [2, 10]: 1.7 µg/mL |
| CCCCCCCCCCCCCCCc1nnc(S)n1N=Cc1ccc(C)cc1 [Compound T3] | 34.38 (≈ 80.2 µM) | 43.56 | 60.12 | 75.67 | 88.98 | 16.6 | 58.3 (≈ 25 µg/mL) | 117 (≈ 50 µg/mL) | 58.3 (≈ 25 µg/mL) | 117 (≈ 50 µg/mL) | 233 (≈ 100 µg/mL) | 126 | 28.2 | 50 | 65.9 | 79.1 | 190 to 193 |  |
| CCCCCCCCCCCCCCCc1nnc(S)n1N=Cc1ccc(OC)c(OC)c1 [Compound T4] | 37.50 (≈ 79 µM) | 38.45 | 58.34 | 88.61 | 98.89 | 7.79 | 52.6 (≈ 25 µg/mL) | 105 (≈ 50 µg/mL) | 52.6 (≈ 25 µg/mL) | 105 (≈ 50 µg/mL) | 52.6 (≈ 25 µg/mL) | 106 | 35.5 | 49.5 | 63.7 | 79.5 | 188 to 191 |  |
| CCCCCCCCCCCCCCCc1nnc(S)n1N=Cc1cc(OC)c(OC)c(OC)c1 [Compound T5] | 39.13 (≈ 77.5 µM) | 42.34 | 55.67 | 68.98 | 78.12 | > 198 | 24.7 (≈ 12.5 µg/mL) | 24.7 (≈ 12.5 µg/mL) | 12.3 (≈ 6.21 µg/mL) | 99 (≈ 50 µg/mL) | 12.3 (≈ 6.21 µg/mL) | 108 | 23.3 | 44.4 | 70.9 | 90.9 |  | MIC [6]: 99.0 µM (≈ 50 µg/mL) |
| CCCCCCCCCCCCCCCc1nnc(S)n1N=Cc1c(O)ccc2ccccc12 [Compound T18] |  | 39.59 | 68.57 | 80.13 | 95.89 |  |  |  |  |  |  |  |  |  |  |  |  | MIC [3]: 104.0 µM (≈ 50 µg/mL); MIC [4]: 104.0 µM (≈ 50 µg/mL); MIC [5]: 52.0 µM (≈ 25 µg/mL); MIC [6]: 104 µM and 104.0 µM; MIC [7]: 208 µM and 208.0 µM; IC50 ([8]; urease inhibition): 54.30 µg/mL; % inhibition ([8]; 25 µg/ml): 40.90%; % inhibition ([8]; 50 µg/ml): 46.79%; % inhibition ([8]; 75 µg/ml): 55.89%; % inhibition ([8]; 100 µg/ml): 67.9%; IC50 [2, 11]: > 208 µM |
| CCCCCCCCCCCCCCCc1nnc(S)n1N=Cc1ccco1 [Compound T20] | 46.34 (≈ 115 µM) | 33.45 | 53.67 | 70.46 | 92.67 |  |  |  |  |  |  |  |  |  |  |  |  | MIC [3]: 61.7 µM (≈ 25 µg/mL); MIC [4]: 61.7 µM (≈ 25 µg/mL); MIC [5]: 123.5 µM (≈ 50 µg/mL); MIC [6]: 247.1 µM (≈ 100 µg/mL); MIC [7]: 247.1 µM (≈ 100 µg/mL); IC50 ([8]; urease inhibition): 52.34 µg/mL; % inhibition ([8]; 25 µg/ml): 28.98%; % inhibition ([8]; 50 µg/ml): 49.09%; % inhibition ([8]; 75 µg/ml): 69.09%; % inhibition ([8]; 100 µg/ml): 81.90%; IC50 [2, 11]: > 247 µM |
| OC(Cn1cncn1)(Cn1cncn1)c1ccc(F)cc1F [Fluconazole, reference compound] |  |  |  |  |  |  |  |  |  | 20.4 (≈ 6.25 µg/mL) | 40.8 (≈ 12.5 µg/mL) |  |  |  |  |  |  |  |
| NC(N)=S [Thiourea, reference compound] |  |  |  |  |  |  |  |  |  |  |  |  |  |  |  |  |  | IC50 ([8]; urease inhibition): 54.25 µg/mL; % inhibition ([8]; 25 µg/ml): 29.98%; % inhibition ([8]; 50 µg/ml): 46.76%; % inhibition ([8]; 75 µg/ml): 67.78%; % inhibition ([8]; 100 µg/ml): 76.78% |

— PMC7818921, “Synthesis and biological evaluation of heterocyclic 1,2,4-triazole scaffolds as promising pharmacological agents” (BMC Chemistry, 2021)
